This passage reports LC retention time results from the RepoRT retention time repository.

The data set can be described thus: HILIC, Waters ACQUITY UPLC BEH Amide, 100 × 2.1 mm, 1.7 µm; A: water + 0.125% formic acid + 10 mM ammonium formate; B: 5% water + 95% acetonitrile + 0.125% formic acid + 10 mM ammonium formate; gradient (min/%B) 0/100 2/100 7.7/70 9.5/40 10.25/30 12.75/100 17/100. The following applies: stereoisomer not certain.
Regarding `CC(C)(CO)C(O)C(=O)NCCC(=O)O` (stereo not drawn) [Pantothenic acid], the LC retention time is 3.5 min.

As to `CN(C)CCC=C1c2ccccc2COc2ccc(CC(=O)O)cc21` [Olopatadine], the LC retention time came out at 4.41 min.

In the case of `CNC(Cc1ccccc1)C(=O)O` (stereo not drawn) [N-Methylphenylalanine], the LC retention time was determined as 6.22 min.

As for `CCn1cc(C(=O)O)c(=O)c2cc(F)c(N3CCN(C)CC3)cc21` [Pefloxacin], the LC retention time worked out at 3.65 min.

Take `CCN1CC(CCN2CCOCC2)C(c2ccccc2)(c2ccccc2)C1=O` (stereo not drawn) [Doxapram]: the LC retention time was 1.64 min.

With `CC1NCCOC1c1ccccc1` (stereo not drawn) [Phenmetrazine], the LC retention time amounted to 4.04 min.

In the case of `CCC(C)C(NC(=O)C(C)N)C(=O)O` (stereo not drawn) [Ala-Ile], the LC retention time worked out at 7.83 min.

Consider `C[n+]1cccc(C(N)=O)c1` [1-Methylnicotinamide], for which the LC retention time stood at 6.26 min.

On to `NC(N)=NCCCC(N)C(=O)NCC(=O)O` (stereo not drawn) [Arg-Gly], for which the LC retention time came to 9.85 min.

As for `CC(O)C(N)=O` (stereo not drawn) [Lactamide], the LC retention time stood at 1.74 min.

In the case of `CCOC(=O)C1=C(C)NC(C)=C(C(=O)OCC)C1c1ccccc1C=CC(=O)OC(C)(C)C` [Lacidipine], the LC retention time came to 0.94 min.

For `O=c1c(O)c(-c2ccc(O)cc2)oc2cc(O)cc(O)c12` [Kaempferol], the LC retention time was 1.4 min.

On to `CCOC(=O)C1=C(C)NC(C)=C(C(=O)OC)C1c1cccc([N+](=O)[O-])c1` (stereo not drawn) [Nitrendipine], for which the LC retention time was 0.95 min.

Take `Nc1ncnc2c1ncn2C1OC(CSCCC(N)C(=O)O)C(O)C1O` (stereo not drawn) [S-Adenosyl-homocysteine]: the LC retention time was determined as 8.85 min.

As to `CC(=O)n1ccnc1` [1-Acetylimidazole], the LC retention time came to 1.37 min.

With `CC(C)C(O)C(=O)O` (stereo not drawn) [2-Hydroxy-3-methylbutyric acid], the LC retention time is 1.29 min.

As to `CC(C)c1ccc2oc3nc(N)c(C(=O)O)cc3c(=O)c2c1` [Amlexanox], the LC retention time worked out at 1.81 min.

In the case of `CN(C)c1nc2c(ncn2C2OC(CO)C(O)C2O)c(=O)[nH]1` (stereo not drawn) [N2,N2-Dimethylguanosine], the LC retention time turned out to be 5.62 min.

`NC(CO)C(=O)NC(CCC(=O)O)C(=O)O` (stereo not drawn) [Ser-Glu]: the LC retention time amounted to 9.65 min.

Turning to `CC(=O)NCC1CN(c2ccc(N3CCOCC3)c(F)c2)C(=O)O1` (stereo not drawn) [Linezolide], the LC retention time was 1.15 min.

On to `Nc1nc2c(c(=O)[nH]1)N(C=O)C(CNc1ccc(C(=O)NC(CCC(=O)O)C(=O)O)cc1)CN2` (stereo not drawn) [Folinic acid], for which the LC retention time stood at 7.92 min.

Regarding `CC(Cc1ccccc1)(NC(=O)CN)c1ccccc1` (stereo not drawn) [Remacemide], the LC retention time is 4.41 min.

In the case of `O=c1ccn(C2CCC(CO)O2)c(=O)[nH]1` (stereo not drawn) [2,3-Dideoxyuridine], the LC retention time is 1.73 min.

For the molecule `C=CCC1(C(C)C#CCC)C(=O)NC(=O)N(C)C1=O` (stereo not drawn) [Methohexital], the LC retention time came out at 6.9 min.

As for `O=C(O)CCNC(=O)c1ccc(N=Nc2ccc(O)c(C(=O)O)c2)cc1` [Balsalazide], the LC retention time worked out at 4.85 min.

Turning to `CCOC(=O)C1(c2ccccc2)CCN(CCC(C#N)(c2ccccc2)c2ccccc2)CC1` [Diphenoxylate], the LC retention time was 1.41 min.

With `CC1CC2C3CCC4=CC(=O)C=CC4(C)C3(F)C(O)CC2(C)C1C(=O)CO` (stereo not drawn) [Desoximetasone], the LC retention time stood at 1.13 min.

As to `OCc1cc(C(O)CNCCCCCCOCCCCc2ccccc2)ccc1O` (stereo not drawn) [Salmeterol], the LC retention time is 4.75 min.

For the molecule `CCCCCC(O)CC` (stereo not drawn) [3-Octanol], the LC retention time turned out to be 8.47 min.

Turning to `O=C(O)C=Cc1ccc(O)cc1` [p-Coumaric acid], the LC retention time was determined as 1.38 min.

Regarding `Cc1[nH]c(=O)c(C#N)cc1-c1ccncc1` [Milrinone], the LC retention time came out at 1.6 min.

On to `OCCN1CC(O)C(O)C(O)C1CO` (stereo not drawn) [Miglitol], for which the LC retention time is 8.12 min.

Regarding `CC12Cc3cn[nH]c3CC1CCC1C2CCC2(C)C1CCC2(C)O` (stereo not drawn) [Stanozolol], the LC retention time was 1.19 min.

Turning to `CC(C)Oc1ccc2c(=O)c(-c3ccccc3)coc2c1` [Ipriflavone], the LC retention time came out at 0.94 min.

Consider `CC(C)CC(=O)NCC(=O)O` [N-Isovalerylglycine], for which the LC retention time amounted to 2.94 min.

For `NCCc1ccc(O)cc1` [Tyramine], the LC retention time worked out at 5.58 min.

For `COCCCOc1ccnc(CS(=O)c2nc3ccccc3[nH]2)c1C` (stereo not drawn) [Rabeprazole], the LC retention time came to 2.44 min.

On to `CSCCC(NC=O)C(=O)O` (stereo not drawn) [N-Formylmethionine], for which the LC retention time was found to be 3.93 min.

Regarding `CC(=O)N[C@@H](CCCCN)C(=O)O` [N.alpha.-Acetyl-L-lysine], the LC retention time is 8.15 min.

Regarding `O=c1[nH]cnc2nc[nH]c12` [Hypoxanthine], the LC retention time is 4.99 min.

For `COC(=O)c1ccccc1C(=O)OC` [Dimethyl phthalate], the LC retention time was found to be 1.04 min.

Consider `CCCc1nc2c(C)cc(-c3nc4ccccc4n3C)cc2n1Cc1ccc(-c2ccccc2C(=O)O)cc1` [Telmisartan], for which the LC retention time is 1.25 min.

On to `O=Cc1cccc(O)c1` [3-Hydroxybenzaldehyde], for which the LC retention time is 1.18 min.

Regarding `CC(=O)NC(CS)C(=O)O` (stereo not drawn) [N-Acetylcysteine], the LC retention time was determined as 5.28 min.

For `CS(=O)CCCCC(=NOS(=O)(=O)O)SC1OC(CO)C(O)C(O)C1O` (stereo not drawn) [Glucoraphanin], the LC retention time worked out at 7.37 min.

Turning to `CC(N)C(=O)NC(C)C(=O)O` (stereo not drawn) [Ala-Ala], the LC retention time was found to be 8.41 min.

`CCC1(O)CC2CN(CCc3c([nH]c4ccccc34)C(C(=O)OC)(c3cc4c(cc3OC)N(C=O)C3C(O)(C(=O)OC)C(OC(C)=O)C5(CC)C=CCN6CCC43C65)C2)C1` (stereo not drawn) [Vincristine]: the LC retention time was determined as 3.7 min.

For the molecule `COc1cc(-c2oc3cc(O)cc(O)c3c(=O)c2OC2OC(CO)C(O)C(O)C2O)cc(OC)c1O` (stereo not drawn) [Syringetin-3-O-glucoside], the LC retention time is 4.32 min.

On to `COC(=O)CC(O)(CCCC(C)(C)O)C(=O)OC1C(OC)=CC23CCCN2CCc2cc4c(cc2C13)OCO4` (stereo not drawn) [Homoharringtonine], for which the LC retention time was determined as 3.24 min.

In the case of `COc1cc(N)c(Cl)cc1C(=O)NC1CN2CCC1CC2` (stereo not drawn) [Zacopride], the LC retention time is 4.66 min.

For the molecule `O=c1ccn(C2OC(CO)CC2O)c(=O)[nH]1` (stereo not drawn) [3-Deoxyuridine], the LC retention time came to 2.87 min.

For the molecule `Cn1cc(CC(N)C(=O)O)c2ccccc21` (stereo not drawn) [1-Methyltryptophan], the LC retention time came out at 6.38 min.

As for `CN1C(=O)COc2c(C(=O)NC3CN4CCC3CC4)cc(Cl)cc21` (stereo not drawn) [Azasetron], the LC retention time turned out to be 4.66 min.

In the case of `CC12CCC3C(CC=C4CC(O)CCC43C)C1CCC2=O` (stereo not drawn) [Dehydroepiandrosterone], the LC retention time turned out to be 1.03 min.

Turning to `Cn1cncc1CC(N)C(=O)O` (stereo not drawn) [3-Methylhistidine], the LC retention time came out at 9.41 min.

With `CC1CCCC(O)CCCCCc2cc(O)cc(O)c2C(=O)O1` (stereo not drawn) [Zeranol], the LC retention time was found to be 1.11 min.

As for `CCOC(=O)N1CCC(=C2c3ccc(Cl)cc3CCc3cccnc32)CC1` [Loratadine], the LC retention time is 1.11 min.

Take `Nc1ccn(C2OC(CO)C(O)C2O)c(=S)n1` (stereo not drawn) [2-Thiocytidine]: the LC retention time worked out at 5.33 min.

`CCCC(=O)OC(CC(=O)[O-])C[N+](C)(C)C` [(R)-Butyrylcarnitine]: the LC retention time turned out to be 5.77 min.

Take `NC(=O)Cc1c[nH]c2ccccc12` [Indole-3-acetamide]: the LC retention time stood at 1.36 min.

Consider `COC1C(O)C(CO)OC1n1ccc(N)nc1=O` (stereo not drawn) [2'-O-Methylcytidine], for which the LC retention time was found to be 5.02 min.

For the molecule `COc1cc(C=O)ccc1O` [Vanillin], the LC retention time is 1.15 min.

As for `COc1ccc(C(CN(C)C)C2(O)CCCCC2)cc1` (stereo not drawn) [Venlafaxine], the LC retention time was 2.44 min.

Turning to `CC(CO)CCNc1ncnc2nc[nH]c12` (stereo not drawn) [Dihydrozeatin], the LC retention time was found to be 2.99 min.

As to `CCN(CC)CC(=O)Nc1c(C)cccc1C` [Lidocaine], the LC retention time was found to be 1.97 min.

Regarding `NCCO` [Ethanolamine], the LC retention time was determined as 7.15 min.

In the case of `NCCOP(=O)(O)O` [O-Phosphocolamine], the LC retention time is 9.23 min.

Consider `O=c1cc[nH]c(=O)[nH]1` [Uracil], for which the LC retention time is 2.4 min.

For `O=C(O)CCc1ccccc1` [Hydrocinnamic acid], the LC retention time came to 8.71 min.

On to `NCCCCN=C(N)N` [Agmatine], for which the LC retention time worked out at 8.92 min.

Consider `COc1nc(C)nc(Cl)c1NC1=NCCN1` [Moxonidine], for which the LC retention time worked out at 3.28 min.

`COc1ccc2c(c1)C13CCCCC1C(C2)N(C)CC3` (stereo not drawn) [Dextromethorphan]: the LC retention time is 2.64 min.

For the molecule `CN(C)CCCN1c2ccccc2CCc2ccc(Cl)cc21` [Clomipramine], the LC retention time worked out at 2.31 min.

`CC(O)C(C)O` (stereo not drawn) [2,3-Butanediol]: the LC retention time was 3.34 min.

With `CCC1=C(C)CN(C(=O)NCCc2ccc(S(=O)(=O)NC(=O)NC3CCC(C)CC3)cc2)C1=O` (stereo not drawn) [Glimepiride], the LC retention time is 1.05 min.

With `CC(=O)N1CCCCCC1=O` [N-Acetylcaprolactam], the LC retention time worked out at 2.3 min.

In the case of `O=C1c2cccc3c2C(CCC3)CN1C1CN2CCC1CC2` (stereo not drawn) [Palonosetron], the LC retention time came to 4.05 min.

As for `OCCOCCN1CCN(C2=Nc3ccccc3Sc3ccccc32)CC1` [Quetiapine], the LC retention time was determined as 2.54 min.

In the case of `O=C1CN=C(c2ccccc2)c2cc([N+](=O)[O-])ccc2N1` [Nitrazepam], the LC retention time was 1.2 min.

As for `CC(C)(CO)C(O)C(=O)NCCCO` (stereo not drawn) [Panthenol], the LC retention time is 1.9 min.

On to `COc1cc(C(=O)NC2CCCNC2)cc(OC)c1OC` (stereo not drawn) [Troxipide], for which the LC retention time stood at 5.04 min.

Consider `CCCCCCCCCCCCCC(=O)OC(CO)CO` [2-Myristoylglycerol], for which the LC retention time was found to be 1.01 min.

As for `Clc1ccccc1CN1CCc2sccc2C1` [Ticlopidine], the LC retention time is 1.12 min.
